One experiment concerns HL-525 cells. Put plainly: Cell growth (cell counts). It counts as cell-based, human. The following applies: 6 d, 3 nM TPA, 1 μM RA, 400 nM Vit D3. How it is done: Cell counts were determined by hemocytometer chamber counting. Immunofluorescence tests for reactivity with the OKM1 antibody (Ortho Pharmaceutical Corp., Raritan, N.J.) were performed as previously described (Murao et al., 1983).

In another experiment the test system is mda-6 (WAF1/CIP1/SDI1). Put plainly: Induction of mda-6 (WAF1/CIP1/SDI1) expression in HL-60 cells (Northern blotting, RT-PCR). The following applies: TPA 3 nM, Vit D3 400 nM, RA 1 μM, DMSO 1%. It counts as cell-based, human. How it is done:
HL-60 cells were originally provided by Dr. R. C. Gallo (National Cancer Institute, Bethesda, Md.) (Collins et al., 1978; Huberman & Callaham, 1979). HL-60 cells designated HL-525 were derived by cloning HL-60 cells after subculturing 102 times in the presence of increasing concentrations (up to 3 μM) of TPA at 5- to 8-day intervals (Homma et al., 1986; Mitchell et al., 1986). […] Prior to the experiments described in this study, the HL-525 cells were subcultured more than 20 times in the absence of TPA. Cells were grown in 100-mm tissue culture dishes in RPMI 1640 medium supplemented with 20% fetal bovine serum, penicillin (100 units/ml) and streptomycin (100 μg/ml) (Grand Island Biological Co., NY) at 37° C. in an atmosphere of 5% CO2 in air in a humidified incubator. The 1,25-(OH)2D3(Vit D3) and TPA were dissolved in a final concentration of 0.01% DMSO, and all-trans retinoic acid (RA) was dissolved in 0.1% DMSO in culture medium. […]
RNA was purified by centrifugation through a CsC1 cushion as described by Chirgwin et al. (1979). […] Following hybridization, the filters were washed and exposed for autoradiography (Reddy et al., 1991; Su et al., 1991; Jiang et al., 1992). mda-6 and GAPDH gene expression were also determined by reverse transcription-polymerase chain reaction (RT-PCR) as described (Adollahi et al. 1991; Lin et al., 1994). […]

We go through 2 molecules from patent US7507792B2, “MDA-7 proteins and methods of use thereof” (The Trustees of Columbia University In The City of New York, priority 1993, dated 2009).

Take `CC1=C(/C=C/C(C)=C/C=C/C(C)=C/C(=O)O)C(C)(C)CCC1` [RA, trans-retinoic acid]: the “reduction in growth (cell numbers)” value with HL-525 cells stood at 35%. On to `CCCCCCCCCCCCCC(=O)O[C@@H]1[C@@H](C)[C@@]2(O)[C@@H](C=C(CO)C[C@]3(O)C(=O)C(C)=C[C@@H]23)[C@@H]2C(C)(C)[C@]12OC(C)=O` [TPA, 12-O-tetradecanoyl-phorbol-13-acetate], for which the “time of treatment at which mda-6 expression is induced” value in the experiment with mda-6 (WAF1/CIP1/SDI1) is listed as at most 2 h.
